From ChEMBL document CHEMBL1770140, “MMP-13 selective α-sulfone hydroxamates: a survey of P1' heterocyclic amide isosteres” (Bioorg Med Chem Lett, 2011)

What was measured:
Interstitial collagenase = molecular target: T1, Interstitial collagenase (Homo sapiens, UniProt P03956); assay: Inhibition of human MMP-1
T1 sequence (P03956 whole entry): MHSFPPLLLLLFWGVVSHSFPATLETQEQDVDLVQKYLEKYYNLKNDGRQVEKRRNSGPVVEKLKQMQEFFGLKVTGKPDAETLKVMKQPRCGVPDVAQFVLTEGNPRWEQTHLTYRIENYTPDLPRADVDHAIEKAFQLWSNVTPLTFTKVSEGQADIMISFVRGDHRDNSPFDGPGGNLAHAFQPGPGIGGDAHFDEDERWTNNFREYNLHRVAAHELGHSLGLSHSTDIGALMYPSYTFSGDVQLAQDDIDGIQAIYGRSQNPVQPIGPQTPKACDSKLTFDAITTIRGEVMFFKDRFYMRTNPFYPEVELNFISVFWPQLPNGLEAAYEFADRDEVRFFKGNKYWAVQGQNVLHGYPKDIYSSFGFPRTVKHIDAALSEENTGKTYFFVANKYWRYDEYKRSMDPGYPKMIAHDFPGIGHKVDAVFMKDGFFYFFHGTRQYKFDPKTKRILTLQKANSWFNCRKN

[1] = molecular target: 72 kDa type IV collagenase (Homo sapiens, UniProt P08253); assay: Inhibition of human MMP-2
Sequence of 72 kDa type IV collagenase (P08253 whole entry): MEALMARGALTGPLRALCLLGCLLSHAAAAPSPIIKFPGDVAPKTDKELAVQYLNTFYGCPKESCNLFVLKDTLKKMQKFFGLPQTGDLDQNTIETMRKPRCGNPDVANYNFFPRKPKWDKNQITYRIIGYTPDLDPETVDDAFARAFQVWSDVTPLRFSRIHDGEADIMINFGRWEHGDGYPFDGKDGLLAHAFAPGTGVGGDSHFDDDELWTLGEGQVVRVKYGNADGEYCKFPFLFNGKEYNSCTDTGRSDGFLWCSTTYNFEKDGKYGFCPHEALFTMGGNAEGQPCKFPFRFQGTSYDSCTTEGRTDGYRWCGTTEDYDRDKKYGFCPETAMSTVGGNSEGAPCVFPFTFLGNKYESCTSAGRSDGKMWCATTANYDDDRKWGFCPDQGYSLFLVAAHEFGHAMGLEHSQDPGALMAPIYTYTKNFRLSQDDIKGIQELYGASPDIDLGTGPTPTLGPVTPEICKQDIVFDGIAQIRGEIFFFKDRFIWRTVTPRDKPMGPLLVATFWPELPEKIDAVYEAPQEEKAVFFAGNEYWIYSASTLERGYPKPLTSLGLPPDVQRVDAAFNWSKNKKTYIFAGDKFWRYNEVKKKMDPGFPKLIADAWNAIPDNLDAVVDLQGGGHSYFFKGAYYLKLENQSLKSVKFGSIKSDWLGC

Stromelysin-1 = Stromelysin-1 (Homo sapiens, UniProt P08254); assay: Inhibition of human MMP-3
Sequence of Stromelysin-1 (P08254 whole entry): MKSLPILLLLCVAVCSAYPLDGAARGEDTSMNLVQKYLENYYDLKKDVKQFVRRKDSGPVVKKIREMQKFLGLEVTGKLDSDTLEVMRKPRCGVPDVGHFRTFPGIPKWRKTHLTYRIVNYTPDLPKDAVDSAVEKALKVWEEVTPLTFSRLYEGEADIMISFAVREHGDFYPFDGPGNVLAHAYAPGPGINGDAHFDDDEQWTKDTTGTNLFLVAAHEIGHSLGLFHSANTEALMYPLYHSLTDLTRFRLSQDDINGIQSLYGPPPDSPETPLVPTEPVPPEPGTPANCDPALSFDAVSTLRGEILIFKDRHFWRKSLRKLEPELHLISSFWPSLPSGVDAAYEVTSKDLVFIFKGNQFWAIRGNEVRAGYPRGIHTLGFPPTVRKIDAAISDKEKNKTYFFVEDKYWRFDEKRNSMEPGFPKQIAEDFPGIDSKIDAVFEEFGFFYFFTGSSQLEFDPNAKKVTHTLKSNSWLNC

Neutrophil collagenase = Neutrophil collagenase (Homo sapiens, UniProt P22894); assay: Inhibition of human MMP-8
Sequence of Neutrophil collagenase (P22894 whole entry): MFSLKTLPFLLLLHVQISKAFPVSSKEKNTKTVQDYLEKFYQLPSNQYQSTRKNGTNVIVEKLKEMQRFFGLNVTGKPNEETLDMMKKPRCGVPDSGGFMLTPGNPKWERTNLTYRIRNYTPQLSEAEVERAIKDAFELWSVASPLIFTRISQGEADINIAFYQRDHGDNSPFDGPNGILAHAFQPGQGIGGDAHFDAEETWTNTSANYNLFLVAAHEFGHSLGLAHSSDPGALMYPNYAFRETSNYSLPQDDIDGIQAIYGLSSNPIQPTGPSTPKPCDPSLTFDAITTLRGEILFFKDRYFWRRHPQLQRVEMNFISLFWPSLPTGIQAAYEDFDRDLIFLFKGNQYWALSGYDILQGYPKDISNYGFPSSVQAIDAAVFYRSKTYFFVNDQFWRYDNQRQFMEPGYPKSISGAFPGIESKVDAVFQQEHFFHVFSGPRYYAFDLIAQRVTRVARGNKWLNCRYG

[2] = molecular target: Matrix metalloproteinase-9 (Homo sapiens, UniProt P14780); assay: Inhibition of human MMP-9
Sequence of Matrix metalloproteinase-9 (P14780 whole entry): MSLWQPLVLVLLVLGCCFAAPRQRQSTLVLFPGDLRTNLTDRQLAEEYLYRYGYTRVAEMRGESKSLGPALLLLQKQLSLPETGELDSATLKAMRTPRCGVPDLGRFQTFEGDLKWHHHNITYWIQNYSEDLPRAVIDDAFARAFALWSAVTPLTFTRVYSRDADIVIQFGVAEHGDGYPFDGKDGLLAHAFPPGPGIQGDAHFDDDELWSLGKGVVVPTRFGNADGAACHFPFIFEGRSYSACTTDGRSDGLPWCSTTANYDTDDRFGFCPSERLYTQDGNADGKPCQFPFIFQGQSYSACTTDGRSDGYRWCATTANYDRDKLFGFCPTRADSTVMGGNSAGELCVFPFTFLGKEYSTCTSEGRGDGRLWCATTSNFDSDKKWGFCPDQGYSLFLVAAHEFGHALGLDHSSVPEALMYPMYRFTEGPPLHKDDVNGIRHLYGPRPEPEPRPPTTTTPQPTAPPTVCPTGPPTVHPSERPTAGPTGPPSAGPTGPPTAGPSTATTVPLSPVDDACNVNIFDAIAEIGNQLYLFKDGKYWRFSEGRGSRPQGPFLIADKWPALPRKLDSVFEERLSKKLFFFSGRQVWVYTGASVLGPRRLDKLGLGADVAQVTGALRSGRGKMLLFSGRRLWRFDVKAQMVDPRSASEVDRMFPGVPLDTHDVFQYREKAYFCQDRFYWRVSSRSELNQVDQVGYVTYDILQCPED

Collagenase 3 = Collagenase 3 (Homo sapiens, UniProt P45452); assay: Inhibition of human MMP-13
[3] = molecular target: Matrix metalloproteinase-14 (Homo sapiens, UniProt P50281); assay: Inhibition of human MMP-14
[4] = Half life in rat; assay type: ADME, organism-based; settings: in vivo
[5] = Cmax in rat; assay type: ADME, organism-based; settings: in vivo
Matrilysin = molecular target: T2, Matrilysin (Homo sapiens, UniProt P09237); assay: Inhibition of human MMP-7
T2 sequence (P09237 whole entry): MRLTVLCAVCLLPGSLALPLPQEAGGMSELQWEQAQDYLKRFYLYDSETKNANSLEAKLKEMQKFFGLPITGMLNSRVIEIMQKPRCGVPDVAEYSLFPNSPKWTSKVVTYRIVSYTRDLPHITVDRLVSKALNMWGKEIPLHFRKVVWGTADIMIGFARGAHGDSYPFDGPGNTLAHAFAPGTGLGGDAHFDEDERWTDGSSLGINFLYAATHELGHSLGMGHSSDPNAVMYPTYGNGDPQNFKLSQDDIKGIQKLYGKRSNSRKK

[6] = Bioavailability in rat; assay type: ADME, organism-based; settings: in vivo
[7] = Clearance in rat; assay type: ADME, organism-based; settings: in vivo

Row | Compound | Ki (Interstitial collagenase) | Ki [1] | Ki (Stromelysin-1) | Ki (Neutrophil collagenase) | Ki [2] | Ki (Collagenase 3) | Ki [3] | half-life [4] | Cmax [5] | IC50 [1] | Ki (Matrilysin) | IC50 (Collagenase 3) | bioavailability [6] | IC50 (Stromelysin-1) | IC50 (Matrilysin) | IC50 (Neutrophil collagenase) | IC50 [2] | clearance [7]
1 | COCCN1CCC(C(=O)NO)(S(=O)(=O)c2ccc(Oc3ccc(OC(F)(F)F)cc3)cc2)CC1 | > 10000 nM |  |  |  |  |  |  | 2.9 h | 21900 ng/mL | < 0.1 nM | 7000 nM | < 0.1 nM | 68% |  |  |  |  | 
2 | Cc1ccc(-c2nnn(CCCOc3ccc(S(=O)(=O)C4(C(=O)NO)CCOCC4)cc3)n2)nc1 | > 10000 nM | 110 nM | 44 nM | 240 nM | 370 nM | 0.66 nM | > 10000 nM | 2 h | 3500 ng/mL |  | 3000 nM |  | 1.7% |  |  |  |  | 46 mL/min/kg
3 | Cc1ccc(-c2nnnn2CCCOc2ccc(S(=O)(=O)C3(C(=O)NO)CCOCC3)cc2)nc1 | > 10000 nM | 400 nM | 3 nM | 250 nM | 2400 nM | 0.6 nM | > 10000 nM | 4.8 h | 3000 ng/mL |  | 970 nM |  | 5% |  |  |  |  | 63 mL/min/kg
4 | CCN1CCC(C(=O)NO)(S(=O)(=O)c2ccc(OCCCc3nc(-c4ccc(OC(F)(F)F)cc4)no3)cc2)CC1 |  | 410 nM | 37 nM | 260 nM | 370 nM | 2 nM |  | 2.4 h | 2200 ng/mL |  | > 10000 nM |  | 28% |  |  |  |  | 19 mL/min/kg
5 | O=C(NO)C1(S(=O)(=O)c2ccc(OCCCn3cnc(-c4ccc(OC(F)(F)F)cc4)c3)cc2)CCOCC1 | > 10000 nM | 530 nM | 59 nM | 74 nM | 1800 nM | 1.7 nM | > 10000 nM |  |  |  | 6000 nM |  |  |  |  |  |  | 
6 | O=C(NO)C1(S(=O)(=O)c2ccc(OCCCc3nnnn3-c3ccc(OC(F)(F)F)cc3)cc2)CCOCC1 | > 10000 nM | 430 nM | 9.9 nM | 72 nM | 1700 nM | 1.2 nM | > 10000 nM | 4 h | 3500 ng/mL |  | 7100 nM |  | 7.3% |  |  |  |  | 42 mL/min/kg

The next lines start with the values.

Row | Ki (Interstitial collagenase) | Ki [1] | Ki (Stromelysin-1) | Ki (Neutrophil collagenase) | Ki [2] | Ki (Collagenase 3) | Ki [3] | half-life [4] | Cmax [5] | IC50 [1] | Ki (Matrilysin) | IC50 (Collagenase 3) | bioavailability [6] | IC50 (Stromelysin-1) | IC50 (Matrilysin) | IC50 (Neutrophil collagenase) | IC50 [2] | clearance [7] | Compound
7 | > 10000 nM | 550 nM | 900 nM | 900 nM | > 10000 nM | 1.6 nM | > 10000 nM | 0.59 h | 0.02 ng/mL |  |  |  |  |  |  |  |  |  | COc1ccc(C(=O)NCCCOc2ccc(S(=O)(=O)C3(C(=O)NO)CCOCC3)cc2)cc1
8 | > 10000 nM |  |  |  |  |  | > 10000 nM | 1.2 h | 4200 ng/mL | 1300 nM |  | 0.7 nM | 14% | 90 nM | > 10000 nM | 1200 nM | 1200 nM |  | COc1ccc(C(=O)N2CCN(c3ccc(S(=O)(=O)C4(C(=O)NO)CCOCC4)cc3)CC2)cc1
9 | 5600 nM |  |  |  |  |  | > 10000 nM |  |  |  |  |  |  | 39 nM |  | 190 nM | 1100 nM |  | COc1ccc(-c2nnn(CCCOc3ccc(S(=O)(=O)C4(C(=O)NO)CCOCC4)cc3)n2)cc1
10 | > 10000 nM | 410 nM | 28 nM | 170 nM | 1200 nM | 0.66 nM | > 10000 nM | 2.4 h | 61 ng/mL |  | > 10000 nM |  | 32% |  |  |  |  | 12 mL/min/kg | O=C(NO)C1(S(=O)(=O)c2ccc(OCCCn3nnc(-c4ccc(OC(F)(F)F)cc4)n3)cc2)CCOCC1
11 | > 10000 nM |  | 8.7 nM | 8000 nM |  | 0.13 nM | > 10000 nM | 1.3 h | 1400 ng/mL |  | 8600 nM |  | 26% |  |  |  |  |  | COCCN1CCC(C(=O)NO)(S(=O)(=O)c2ccc(OCCCn3nnc(-c4ccc(OC(F)(F)F)cc4)n3)cc2)CC1
12 |  |  | 31 nM | 180 nM |  |  |  | 1.4 h | 240 ng/mL |  | > 10000 nM |  | 22% |  |  |  |  | 14 mL/min/kg | O=C(NO)C1(S(=O)(=O)c2ccc(OCCCc3nc(-c4ccc(OC(F)(F)F)cc4)no3)cc2)CCOCC1
13 | > 10000 nM | 9200 nM | 130 nM | 140 nM | > 10000 nM | 3.7 nM | > 10000 nM |  |  |  | > 10000 nM |  |  |  |  |  |  |  | O=C(NO)C1(S(=O)(=O)c2ccc(OCCCn3cncc3-c3ccc(OC(F)(F)F)cc3)cc2)CCOCC1
